Experimental data taken from patent US10457710B2, “Antimicrobial peptides, their variants and uses” (priority 2015, dated 2019).
Where a SMILES comes first, the peptide text is derived from it. [ ]: non-standard residue; d: D form.

Experiments:
Type in all cases: cell-based
C. quillermondiae = test: MIC, clinical yeast strains; parameters: Minimum inhibitory concentration: unit: μg/ml; settings: C. quillermondiae clinical yeast strain 1
Method: (§1) Minimum inhibition concetrations (MICs) were determined against Escherichia coli (ATCC 25922), Staphylococcus aureus (ATCC 25923), Klebsiella pneumoniae (ATCC 10031) and Pseudomonas aeruginosa (ATCC 27853). Also clinical strains of E. coli, K. pneumoniae, E. cloacae, P. aeruginosa, Serratia marcescens, Proteus mirabilis, S. pneumoniae, Acinetobacter baumannii, A. johnsonii and S. aureus were used for MICs assays. Additionally, clinical strains of yeast including Candida albicans, C. glabrata, C. parapsilosis and C. quillermondiae were used. The susceptibility of these microorganisms to Chain peptides were determined using micro broth dilution assay. Colonies of the respective microorganism from Muller Hinton (MH) agar plates incubated overnight were suspended in MH broth media and final concentration of microorganism was adjusted to 5.0×10^5 cfu/ml. An aliquot of 10 μl of each Chain peptide, or gentamicin, tetracycline as reference antibiotics were added in differing concentrations along with 90 μl of bacterial suspension to 96 well polypropylene plates and incubated at 37° C. for 20 to 24 hours. Concentrations of Chain peptides and reference antibiotics ranged from 0.125 to 128 μg/ml and the MICs were recorded as the lowest concentration with no visual growth of bacteria. Similarly, antifungal MICs were tested in Potato dextrose broth.
(§2) Clinical strains of yeasts including Candida albicans, C. glabrata, C. parapsilosis and C. quillermondiae were also tested with the 12 Chain peptides. The minimum inhibitory concentration (MICs) varied between these peptides and are presented in Tables 4a, 4b, 4c and 5a, 5b, 5c. Peptides Chain 105, 201 and 308 are broad spectrum antimicrobials with MICs between 0.5-32 μg/ml against all the bacteria and yeasts tested, except Serratia marcescens and Proteus mirabilis, against which the MICs were between 64-128 μg/ml. Peptide Chain 306 has narrow spectrum activity against E. coli at 1 μg/ml and for the rest of the bacterial strains at >32 μg/ml (FIG. 10c).

Candida albicans = test: MIC, clinical yeast strains
Method: as §1, §2

C. parapsilosis = test: MIC, clinical yeast strains
Method: as §1, §2

C. glabrata = test: MIC, clinical yeast strains
Method: as §1, §2

[1] = test system: clinical strains of S. pneumoniae; test: MIC, microdilution, clinical strains; settings: 0.02% BSA, 0.2% acetic acid
Method: as §1, §2

[2] = test system: clinical strains of E. cloacae; test: MIC, microdilution, clinical strains; settings: 0.02% BSA, 0.2% acetic acid
Method: as §1, §2

[3] = test system: clinical strains of K. pneumoniae; test: MIC, microdilution, clinical strains; settings: 0.02% BSA, 0.2% acetic acid
Method: as §1, §2

[4] = test system: clinical strains of Proteus mirabilis; test: MIC, microdilution, clinical strains; settings: 0.02% BSA, 0.2% acetic acid
Method: as §1, §2

[5] = test system: clinical strains of P. aeruginosa; test: MIC, microdilution, clinical strains; settings: 0.02% BSA, 0.2% acetic acid
Method: as §1, §2

[6] = test system: clinical strains of Serratia marcescens; test: MIC, microdilution, clinical strains; settings: 0.02% BSA, 0.2% acetic acid
Method: as §1, §2

[7] = test system: clinical strains of E. coli; test: MIC, microdilution, clinical strains; settings: microdilution, Muller Hinton broth-cation adjusted, 0.02% BSA, 0.2% acetic acid
Method: as §1, §2

[8] = test system: clinical strains of S. aureus; test: MIC, microdilution, clinical strains; settings: 0.02% BSA, 0.2% acetic acid
Method: as §1, §2

[9] = Candida albicans clinical yeast strain 1
[10] = Candida albicans clinical yeast strain 2
[11] = Candida albicans clinical yeast strain 3
[12] = Candida albicans clinical yeast strain 4
[13] = Candida albicans clinical yeast strain 5
[14] = C. parapsilosis clinical yeast strain 1
[15] = C. parapsilosis clinical yeast strain 2
[16] = C. parapsilosis clinical yeast strain 3
[17] = C. parapsilosis clinical yeast strain 4
[18] = C. glabrata clinical yeast strain 1
[19] = C. glabrata clinical yeast strain 2
[20] = C. glabrata clinical yeast strain 3
[21] = C. glabrata clinical yeast strain 4
[22] = Streptococcus pneumoniae strain 1, Muller Hinton broth-cation adjusted
[23] = Streptococcus pneumoniae strain 2, Muller Hinton broth-cation adjusted
[24] = Streptococcus pneumoniae strain 3, Muller Hinton broth-cation adjusted
[25] = Streptococcus pneumoniae strain 4, Muller Hinton broth-cation adjusted
[26] = Streptococcus pneumoniae strain 5, Muller Hinton broth-cation adjusted
[27] = Enterobacter cloacae strain 1, Muller Hinton broth-cation adjusted
[28] = Enterobacter cloacae strain 2, Muller Hinton broth-cation adjusted
[29] = Enterobacter cloacae strain 3, Muller Hinton broth-cation adjusted
[30] = Enterobacter cloacae strain 4, Muller Hinton broth-cation adjusted
[31] = Enterobacter cloacae strain 5, Muller Hinton broth-cation adjusted
[32] = Klebsiella pneumoniae strain 1, Muller Hinton broth-cation adjusted
[33] = Klebsiella pneumoniae strain 2, Muller Hinton broth-cation adjusted
[34] = Klebsiella pneumoniae strain 3, Muller Hinton broth-cation adjusted
[35] = Klebsiella pneumoniae strain 4, Muller Hinton broth-cation adjusted
[36] = Klebsiella pneumoniae strain 5, Muller Hinton broth-cation adjusted
[37] = Proteus mirabilis strain 1, Muller Hinton broth-cation adjusted
[38] = Proteus mirabilis strain 2, Muller Hinton broth-cation adjusted
[39] = Proteus mirabilis strain 3, Muller Hinton broth-cation adjusted
[40] = Proteus mirabilis strain 4, Muller Hinton broth-cation adjusted
[41] = Proteus mirabilis strain 5, Muller Hinton broth-cation adjusted
[42] = Pseudomonas aeruginosa strain 1, Muller Hinton broth-cation adjusted
[43] = Pseudomonas aeruginosa strain 2, Muller Hinton broth-cation adjusted
[44] = Pseudomonas aeruginosa strain 3, Muller Hinton broth-cation adjusted
[45] = Pseudomonas aeruginosa strain 4, Muller Hinton broth-cation adjusted
[46] = Pseudomonas aeruginosa strain 5, Muller Hinton broth-cation adjusted
[47] = Serratia marcescens strain 1, Muller Hinton broth-cation adjusted
[48] = Serratia marcescens strain 2, Muller Hinton broth-cation adjusted
[49] = Serratia marcescens strain 3, Muller Hinton broth-cation adjusted
[50] = Serratia marcescens strain 4, Muller Hinton broth-cation adjusted
[51] = Serratia marcescens strain 5, Muller Hinton broth-cation adjusted
[52] = Staphylococcus aureus strain 1, Muller Hinton broth-cation adjusted
[53] = Staphylococcus aureus strain 2, Muller Hinton broth-cation adjusted
[54] = Staphylococcus aureus strain 3, Muller Hinton broth-cation adjusted
[55] = Staphylococcus aureus strain 4, Muller Hinton broth-cation adjusted
[56] = Staphylococcus aureus strain 5, Muller Hinton broth-cation adjusted

CC[C@@H](C)[C@@H](N)C(=O)N[C@H](Cc1c[nH]c2ccccc12)C(=O)N[C@H](CCCCN)C(=O)N[C@H](CCCNC(=N)N)C(=O)N[C@H](Cc1ccccc1)C(=O)N[C@H](CCCNC(=N)N)C(=O)N[C@H](CC(C)C)C(=O)N[C@H](Cc1ccccc1)C(=O)N[C@H](CCCCN)C(=O)N[C@H](CCCCN)C(=O)N[C@H](Cc1c[nH]c2ccccc12)C(=O)O [Chain304D] (H-[dI][dW][dK][dR][dF][dR][dL][dF][dK][dK][dW]-OH)
Minimum inhibitory concentration (C. quillermondiae): 16 | Minimum inhibitory concentration (Candida albicans; [9]): 16 | Minimum inhibitory concentration (Candida albicans; [10]): 16 | Minimum inhibitory concentration (Candida albicans; [11]): 16 | Minimum inhibitory concentration (Candida albicans; [12]): 16 | Minimum inhibitory concentration (Candida albicans; [13]): 32 | Minimum inhibitory concentration (C. parapsilosis; [14]): 64 | Minimum inhibitory concentration (C. parapsilosis; [15]): 64 | Minimum inhibitory concentration (C. parapsilosis; [16]): 32 | Minimum inhibitory concentration (C. parapsilosis; [17]): 16 | Minimum inhibitory concentration (C. glabrata; [18]): 16 | Minimum inhibitory concentration (C. glabrata; [19]): 16 | Minimum inhibitory concentration (C. glabrata; [20]): 8 | Minimum inhibitory concentration (C. glabrata; [21]): 64 | Minimum inhibitory concentration [1, 22]: 128 | Minimum inhibitory concentration [1, 23]: 128 | Minimum inhibitory concentration [1, 24]: 128 | Minimum inhibitory concentration [1, 25]: 128 | Minimum inhibitory concentration [1, 26]: 64 | Minimum inhibitory concentration [2, 27]: 64 | Minimum inhibitory concentration [2, 28]: 64 | Minimum inhibitory concentration [2, 29]: 128 | Minimum inhibitory concentration [2, 30]: 128 | Minimum inhibitory concentration [2, 31]: 32 | Minimum inhibitory concentration [3, 32]: >128 | Minimum inhibitory concentration [3, 33]: >128 | Minimum inhibitory concentration [3, 34]: >128 | Minimum inhibitory concentration [3, 35]: >128 | Minimum inhibitory concentration [3, 36]: 64 | Minimum inhibitory concentration [4, 37]: >128 | Minimum inhibitory concentration [4, 38]: >128 | Minimum inhibitory concentration [4, 39]: >128 | Minimum inhibitory concentration [4, 40]: >128 | Minimum inhibitory concentration [4, 41]: >128 | Minimum inhibitory concentration [5, 42]: 32 | Minimum inhibitory concentration [5, 43]: 64 | Minimum inhibitory concentration [5, 44]: 64 | Minimum inhibitory concentration [5, 45]: 64 | Minimum inhibitory concentration [5, 46]: 16 | Minimum inhibitory concentration [6, 47]: >128 | Minimum inhibitory concentration [6, 48]: >128 | Minimum inhibitory concentration [6, 49]: >128 | Minimum inhibitory concentration [6, 50]: >128 | Minimum inhibitory concentration [6, 51]: >128 | Minimum inhibitory concentration ([7]; Escherichia coli strain 1): 1 | Minimum inhibitory concentration ([7]; Escherichia coli strain 2): 16 | Minimum inhibitory concentration ([7]; Escherichia coli strain 3): 16 | Minimum inhibitory concentration ([7]; Escherichia coli strain 4): 32 | Minimum inhibitory concentration ([7]; Escherichia coli strain 5): 32 | Minimum inhibitory concentration [8, 52]: 32 | Minimum inhibitory concentration [8, 53]: 32 | Minimum inhibitory concentration [8, 54]: 16 | Minimum inhibitory concentration [8, 55]: 16 | Minimum inhibitory concentration [8, 56]: 16

CC(C)C[C@@H](NC(=O)[C@H](N)CCCCN)C(=O)N[C@H](CCCCN)C(=O)N[C@H](Cc1c[nH]c2ccccc12)C(=O)N[C@H](Cc1ccccc1)C(=O)N[C@H](Cc1c[nH]c2ccccc12)C(=O)N[C@H](CC(C)C)C(=O)N[C@H](Cc1ccccc1)C(=O)N[C@H](CCCCN)C(=O)N[C@H](CCCCN)C(=O)N[C@H](CCCNC(=N)N)C(=O)O [Chain311D] (H-[dK][dL][dK][dW][dF][dW][dL][dF][dK][dK][dR]-OH)
Minimum inhibitory concentration (C. quillermondiae): 4 | Minimum inhibitory concentration (Candida albicans; [9]): 8 | Minimum inhibitory concentration (Candida albicans; [10]): 8 | Minimum inhibitory concentration (Candida albicans; [11]): 8 | Minimum inhibitory concentration (Candida albicans; [12]): 16 | Minimum inhibitory concentration (Candida albicans; [13]): 16 | Minimum inhibitory concentration (C. parapsilosis; [14]): 16 | Minimum inhibitory concentration (C. parapsilosis; [15]): 8 | Minimum inhibitory concentration (C. parapsilosis; [16]): 8 | Minimum inhibitory concentration (C. parapsilosis; [17]): 8 | Minimum inhibitory concentration (C. glabrata; [18]): 16 | Minimum inhibitory concentration (C. glabrata; [19]): 16 | Minimum inhibitory concentration (C. glabrata; [20]): 8 | Minimum inhibitory concentration (C. glabrata; [21]): 64 | Minimum inhibitory concentration [1, 22]: 16 | Minimum inhibitory concentration [1, 23]: 8 | Minimum inhibitory concentration [1, 24]: 16 | Minimum inhibitory concentration [1, 25]: 4 | Minimum inhibitory concentration [1, 26]: 8 | Minimum inhibitory concentration [2, 27]: 4 | Minimum inhibitory concentration [2, 28]: 4 | Minimum inhibitory concentration [2, 29]: 4 | Minimum inhibitory concentration [2, 30]: 4 | Minimum inhibitory concentration [2, 31]: 2 | Minimum inhibitory concentration [3, 32]: 8 | Minimum inhibitory concentration [3, 33]: 8 | Minimum inhibitory concentration [3, 34]: 4 | Minimum inhibitory concentration [3, 35]: 8 | Minimum inhibitory concentration [3, 36]: 4 | Minimum inhibitory concentration [4, 37]: >128 | Minimum inhibitory concentration [4, 38]: 128 | Minimum inhibitory concentration [4, 39]: 128 | Minimum inhibitory concentration [4, 40]: >128 | Minimum inhibitory concentration [4, 41]: >128 | Minimum inhibitory concentration [5, 42]: 16 | Minimum inhibitory concentration [5, 43]: 8 | Minimum inhibitory concentration [5, 44]: 16 | Minimum inhibitory concentration [5, 45]: 8 | Minimum inhibitory concentration [5, 46]: 4 | Minimum inhibitory concentration [6, 47]: >128 | Minimum inhibitory concentration [6, 48]: >128 | Minimum inhibitory concentration [6, 49]: >128 | Minimum inhibitory concentration [6, 50]: >128 | Minimum inhibitory concentration [6, 51]: >128 | Minimum inhibitory concentration ([7]; Escherichia coli strain 1): 2 | Minimum inhibitory concentration ([7]; Escherichia coli strain 2): 2 | Minimum inhibitory concentration ([7]; Escherichia coli strain 3): 1 | Minimum inhibitory concentration ([7]; Escherichia coli strain 4): 0.5 | Minimum inhibitory concentration ([7]; Escherichia coli strain 5): 1 | Minimum inhibitory concentration [8, 52]: 1 | Minimum inhibitory concentration [8, 53]: 1 | Minimum inhibitory concentration [8, 54]: 1 | Minimum inhibitory concentration [8, 55]: 1 | Minimum inhibitory concentration [8, 56]: 1
